Results reported in PMC6828666, “Discovery of holoenzyme-disrupting chemicals as substrate-selective CK2 inhibitors” (Scientific Reports, 2019).

Legend:
CK2 holoenzyme = biological target: T1, CK2 holoenzyme (Homo sapiens, UniProt P68400); test: Autophosphorylation of CK2β by CK2 holoenzyme; format: biochemical; details: increasing concentrations of compound
T1 construct: made in house; host or cells: Escherichia coli (CK2α)
Method: Fig. S3. Compound 1 inhibits CK2β-dependent phosphorylation of Olig2 transcription factor and CK2β-dependent autophosphorylation. (a) CK2α (200 nM) was incubated with increasing concentrations of CK2β in the absence or presence of compound 1 (50 μM) followed by the addition of GST-Olig2 (3.7 μg), [γ^32P]-ATP (100 μM, 1 μCi) and MgCl2 (10 mM). Samples were analyzed by SDS PAGE and subjected to autoradiography. Left and right parts of the image are from the same gel (see Supplementary Fig. S16). (b) ^32P incorporated into GST-Olig2 was determined by densitometry scanning and is expressed as arbitrary units; (c) CK2β (300 nM) was incubated with increasing concentrations of compound 1, 10 μM [γ^32P] ATP and 10 mM MgCl2. Autophosphorylation was initiated by the addition of 300 nM CK2α. Phosphorylated proteins were separated by SDS/PAGE and analyzed by autoradiography (c) or Coomassie Blue staining (d); ^32P incorporation into CK2β was quantified and expressed as arbitrary units (e). Uncropped blots are shown in Supplementary Fig. S16.

CK2α/CK2β interaction = CK2α/CK2β interaction (Homo sapiens, UniProt P68400); test: In vitro CK2α/CK2β interaction assay ([35S]methionine-labeled CK2α, plate-bound MBP-CK2β); format: binding
Method: The CK2α/CK2β interaction assay involved competition between plate-bound MBP-CK2β and the selected compounds for binding to soluble [^35S]methionine-labeled CK2α (10^5 cpm). The assays were performed in reacti-Bind streptavidin-coated high-binding-capacity 96-well plates (Pierce) in which each well was coated with 250 ng of biotinylated MBP-CK2β in 50 mM Tris/HCl, pH 7.2, and 0.4 M NaCl buffer. The compounds and [^35S]methionine-labeled CK2α were added in each well in the same buffer, incubated for 1 h at room temperature and triple-washed, after which the radioactivity of each well was determined using a scintillation counter. Positive control (100% competition) was determined with a 10-fold molar excess of untagged CK2α, and negative control (0% competition) was performed in the absence of competitor[35].

[1] = Solubility in the protein buffer (WaterLOGSY NMR); format: physicochemical; details: relative to the other compounds
Method: Standard 1D, STD, and WaterLOGSY NMR spectra were acquired at 20 °C with a Bruker 600 MHz NMR spectrometer, equipped with a Z-gradient cryoprobe. WaterLOGSY mixing time was 1.5 s. Both STD and WaterLOGSY spectra were recorded for each sample. WaterLOGSY spectra in the absence of protein receptor were recorded with 300 µM compound to assess the compound solubility. All the NMR experiments were performed at 293 K with excitation sculpting to suppress peaks from water. 1D and STD experiments were performed using identical experimental conditions (spin lock, interscan delays), and parameters for the STD experiments (saturation frequency and saturation time) were identical for all samples. […] NMR tubes contained 2 μM CK2 with 300 μM of 4.

[2] = test system: CK2β-depleted MCF10A cells (ΔCK2β); test: Cell growth inhibition in CK2β-depleted cells (IncuCyte); format: cell-based, human; details: 50 μM; ΔCK2β vs WT MCF10A
Method: Cells grown on 96-well flat-bottomed plates (Corning Falcon) were tracked using an Essen IncuCyte Zoom live-cell microscopy instrument, an automated live cell imager with high-throughput capabilities and built-in data analysis. Experiments were conducted at 37 °C and 5% CO2. The software incorporated into the IncuCyte Zoom was used to analyze the images.
MCF10A and MDA-MB231 cells were seeded into 96-well plates at a density (1 × 10^4 and 2 × 10^4 cells/well, respectively) and allowed to attach overnight. Bright field images were captured every 3 h for the duration of the experiment. The detection software was calibrated specifically for MCF10A and MDA-MB231 to ensure accurate distinction of cells from empty space. Cell proliferation data were obtained by the cell confluence increment in each of the treatments and expressed as percentage relative to that of control cells.
Fig. S9. […] (a) MCF10A cells were incubated with increasing concentrations of 6 for 24 h. (b) Inset: western blot analysis of CK2 subunits in parental MCF10A cells (WT) or CK2β knockdown MCF10A cells (∆CK2β). Uncropped blots are shown in Supplementary Fig. S16. MCF10A WT (r,p) or MCF10A ∆CK2β (○,●) were incubated with DMSO (r,○) or 50 μM 6 (p,●) for the indicated time. Cell growth was monitored using an Essen IncuCyte Zoom live-cell microscopy incubator. Images were captured every 15 min for the duration of the experiment. […]

CK2α/CK2β interaction, sequence (P68400 whole entry): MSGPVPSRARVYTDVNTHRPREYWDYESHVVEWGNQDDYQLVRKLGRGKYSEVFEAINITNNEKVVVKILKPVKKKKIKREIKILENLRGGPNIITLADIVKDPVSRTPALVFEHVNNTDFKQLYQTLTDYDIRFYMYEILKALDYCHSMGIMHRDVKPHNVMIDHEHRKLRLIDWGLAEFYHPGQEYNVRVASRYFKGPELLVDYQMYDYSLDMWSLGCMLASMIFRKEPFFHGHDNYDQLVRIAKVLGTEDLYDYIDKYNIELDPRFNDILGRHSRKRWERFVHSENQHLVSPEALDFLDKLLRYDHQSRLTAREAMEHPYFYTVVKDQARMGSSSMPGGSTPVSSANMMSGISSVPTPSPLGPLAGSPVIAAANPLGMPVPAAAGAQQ
T1 sequence (P68400 whole entry): as above

COc1[nH]c2ccc(F)cc2c1C(=O)OCC1CCN(CCNS(C)(=O)=O)CC1 [Compound 1]
autophosphorylation of CK2β (CK2 holoenzyme): dose-dependent decrease | IC50 (CK2α/CK2β interaction): ~80 µM | reduction of bound radioactive CK2α (CK2α/CK2β interaction; single dose 300 μM): about 75%

O=C(OCC1CCN(CCNS(=O)(=O)c2ccccc2)CC1)c1c[nH]c2ccccc12 [Compound 4, (1-(2-(Phenylsulfonamido)ethyl)piperidin-4-yl)methyl 1H-indole-3-carboxylate]
solubility in the protein buffer [1]: highest solubility

COc1[nH]c2ccc(F)cc2c1C(=O)OCC1CCN(CCNS(=O)(=O)c2ccccc2)CC1.Cl [Compound 6]
growth inhibition in CK2β-depleted cells compared with WT cells [2]: twice more pronounced
